Our source for the melting point, Ki and IC50 values is US9029393B2, “Adenosine receptor ligands and uses thereof” (Kaldi Pharma, SAS, priority 2009, dated 2015).

Structures can show the parent of a compound that is named as a salt. A value given as a limit tells only on which side of the number the result lay.

Usually melting point stands for the temperature of the solid-liquid transition. The Ki is a dissociation constant, usually derived from enzyme kinetics or from competition with a known ligand. The IC50 is the concentration that inhibits the measured activity by half. High values mean weaker potency, low ones greater potency.

One data set addresses hA2A receptor (Homo sapiens (Human), UniProt P29274). Nature of the data set: A2A FRET-based binding assay. As to conditions: HEK GFP-A2A stable cell line, dyed CGS15943-derived probe. As for the experimental part: Assay protocol: Compounds were evaluated on an in-vitro binding assay developed based on the technology described in the patent WO 98/55873. This assay was developed from hA2A receptor that was fused at its amino terminal domain to Green Fluorescent Protein (GFP) and stably expressed in HEK cells. The probe used is a dyed ligand derived from the non-selective CGS15943. For the FRET-binding experiment, HEK GFP-A2A stable cell line was seeded onto poly-D-lysine precoated black-walled 96-well plates in normal growth media (0.7 10^5 cells per well). After 24 hours of culture at 37° C., the cell media was removed and cells were washed. The tested compounds were applied on cells by the FLIPR^TETRA® (Molecular Devices®) and incubated for 10 minutes prior to addition of the dyed probe. When a drug interacts with the receptor, the FRET signal measured by the variation of GFP fluorescence at 510 nm is disrupted. The time curves of ligand binding were recorded during 1000 seconds. (excitation Light Emitting Diode 470-495 nm, emission 510+/−10 nm). The percentage of inhibition allows the evaluation of the inhibitory activity of compounds in comparison to the antagonist A2A reference CGS15943. The dose-inhibition curves were fitted with variable slope, using GraphPad® Prism software, in order to determine […] and Ki values. The dose-inhibition experiments were all performed in duplicate, three times independently.

The target of another data set is human A2A receptor (Homo sapiens, UniProt P29274). Kind of data set: A2A-antagonist Ca++ functional assay (CGS21680 at EC80). In kind it is cell-based. As to conditions: HEK cells expressing GFP-hA2A and Gα15, inhibition of CGS21680 (EC80)-induced Ca2+ increase. The text has this:
Assay protocol: HEK cells stably expressing the human A2A receptor fused at its amino terminal domain to GFP, and cultured in Modified Eagle's Medium supplemented with 10% FCS, were transiently transfected by electroporation with plasmid DNA encoding the promiscuous G protein Gα15 in order to deviate the natural coupling of the receptor from AMPc production to calcium (Ca^2+) release pathway (Brabet et al., Neuropharmacology 37:1043-1051, 1998). Receptor activity was detected by changes in intracellular Ca^2+, measured using the fluorescent Ca^2+ sensitive dye, Fluo4AM (Molecular Probes®).
Cells were plated after transfection onto polyornithine coated, clear bottom, black-walled, 96-well plates and cultured for 24 hours. The day of the test, cells were washed with freshly prepared buffer B (HBSS 1×, Hepes 20 mM, MgSO4.7H2O 1 mM, Na2CO3 3.3 mM, CaCl2-2H2O 1.3 mM, 0.5% BSA, Probenecid 2.5 mM) and loaded at 37° C. in 5% CO2 for 1.5 hours with buffer B containing 1 μM Fluo4AM and 0.1 mg/mL Pluronic Acid. Afterwards cells were washed twice with buffer B and 50 μL of this buffer were added to each well. The tested compounds were incubated […] before addition of CGS21680 (used as reference agonist) at a concentration leading to 80% of its maximal activity (EC80). Afterwards, the intracellular Ca^2+ measurements were performed on a 60s kinetic by detection of the fluorescence intensity (excitation 485 nm, emission 525 nm) using the fluorescence microplate reader FlexStation® (Molecular Devices®). All data reflect three independent experiments. Dose-response curves were fitted by using the sigmoidal dose-response (variable slope) analyze in GraphPad Prism® program (San Diego) and IC50 of antagonist compound was calculated. Dose-response experiments were all performed in triplicate, three times independently.

Sequence of hA2A receptor (P29274 whole entry, the tested form may be a part): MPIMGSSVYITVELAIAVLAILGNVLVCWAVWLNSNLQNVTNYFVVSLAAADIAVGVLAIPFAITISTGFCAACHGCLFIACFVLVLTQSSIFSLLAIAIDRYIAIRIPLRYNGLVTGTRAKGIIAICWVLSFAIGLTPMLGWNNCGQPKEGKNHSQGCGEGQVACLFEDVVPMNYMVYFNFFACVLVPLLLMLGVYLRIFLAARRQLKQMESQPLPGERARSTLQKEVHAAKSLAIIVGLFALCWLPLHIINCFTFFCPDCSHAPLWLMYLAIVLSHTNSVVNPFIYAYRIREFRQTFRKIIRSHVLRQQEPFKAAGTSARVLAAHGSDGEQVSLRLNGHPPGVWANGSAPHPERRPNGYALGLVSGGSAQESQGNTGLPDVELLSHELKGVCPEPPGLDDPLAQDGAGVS

Turning to `Cl.O=C(c1ccc2c(-c3cnc4ccc(F)cn34)nn(CCc3ccccc3)c2c1)N1CCCCCC1`, the melting point was in the range of 139 to 140 °C.
Same read-out and setting: the figure for `COCCOCCn1nc(-c2cnc3ccc(F)cn23)c2ccc(C(=O)N3CCCCCC3)cc21.Cl` is 159 to 165 °C.
Still for that read-out and setting: the same measure for `Cl.O=C(c1ccc2c(-c3cnc4ccc(F)cn34)nn(CCN3CCOCC3)c2c1)N1CCCCCC1`: 230 to 245 °C; for `CCN(C(=O)c1ccc2c(-c3cnc4ccc(F)cn34)noc2c1)C(C)C.Cl`: 219 to 225 °C; for `Cl.O=C(c1ccc2c(-c3cnc4ccc(F)cn34)noc2c1)N1CCCCC1`: 203 to 205 °C.
On the same count and under the same terms, the figure for `Cl.N#Cc1ccc2ncc(-c3noc4cc(C(=O)N5CCCCCC5)ccc34)n2c1` is 234 to 235 °C.
`Cl.Cn1nc(-c2cnc3ccc(C#N)cn23)c2ccc(C(=O)N3CCCCCC3)cc21` yielded a melting point above 250 °C.
With `Cc1ccc2ncc(-c3nn(C)c4cc(C(=O)N5CCCCCC5)ccc34)n2c1.Cl`, the melting point is above 250 °C.
`CCc1ccc2ncc(-c3nn(C)c4cc(C(=O)N5CCCCCC5)ccc34)n2c1.Cl` displayed a melting point above 250 °C.
Regarding `Cl.Cn1nc(-c2cnc3ccc(C4CC4)cn23)c2ccc(C(=O)N3CCCCCC3)cc21`, the melting point was above 250 °C.
The compound `Cl.Cn1nc(-c2cnc3ccccn23)c2ccc(C(=O)N3CCCCCC3)cc21` yielded a melting point above 250 °C.
Turning to `CN(C(=O)c1ccc2c(-c3cnc4ccc(F)cn34)nn(C)c2c1)c1ccccc1.Cl`, the melting point was above 250 °C.
Still for that read-out and setting: the same measure for `CCN(C(=O)c1ccc2c(-c3cnc4ccc(F)cn34)nn(C)c2c1)C(C)C.Cl`: above 250 °C.
Turning to `Cl.Cn1nc(-c2cnc3ccc(F)cn23)c2ccc(C(=O)N3CCCC4CCCCC43)cc21` (centres unmarked), the melting point was in the range of 248 to 249 °C.
On the same count and under the same terms, the same measure for `Cl.Cn1nc(-c2cnc3ccc(F)cn23)c2ccc(C(=O)N(CC3CC3)C3CCCCC3)cc21`: 235 to 245 °C.
Regarding `Cl.Cn1nc(-c2cnc3ccc(F)cn23)c2ccc(C(=O)N3CCCCCCCC3)cc21` (hydrate or solvate), the melting point is 240 to 245 °C.
On the same count and under the same terms, the same measure for `Cl.Cn1nc(-c2cnc3ccc(F)cn23)c2ccc(C(=O)N3CCCCC3)cc21` (hydrate or solvate): above 250 °C.
The same measure, in the same setting: the figure for `Cl.Cn1nc(-c2cnc3ccc(C#N)cn23)c2ccc(C(=O)N3CCCCC3)cc21` (hydrate or solvate) is above 250 °C; for `Cl.Cn1nc(-c2cnc3ccc(F)cn23)c2ccc(C(=O)N3CCCCCCC3)cc21` (hydrate or solvate) [Example 97, Azocan-1-yl-[3-(6-fluoro-imidazo[1,2-a]pyridin-3-yl)-1-methyl-1H-indazol-6-yl]-methanone, chlorhydrate salt] it is 241 to 249 °C; for `COC[C@H]1CCCN1C(=O)c1ccc2c(-c3cnc4ccc(C#N)cn34)nn(C)c2c1.Cl` (hydrate or solvate) [Example 101, 3-(1-Methyl-6-{[(2R)-2-(methoxymethyl)pyrrolidin-1-yl]carbonyl}-1H-indazol-3-yl)imidazo[1,2-a]pyridine-6-carbonitrile, chlorhydrate salt] it is 230 to 235 °C.
`CCN(C(=O)c1ccc(C(=O)c2cnc3ccc(C#N)cn23)cc1)C1CCCCC1` [Example 7, 4-(6-Cyano-imidazo[1,2-a]pyridine-3-carbonyl)-N-cyclohexyl-N-ethyl-benzamide] returned a Ki on hA2A receptor of 171 ± 104 nM.
`CCN(C(=O)c1ccc(C(=O)c2cnc3ccc(Br)cn23)cc1)C1CCCCC1` [Example 10, 4-(6-Bromo-imidazo[1,2-a]pyridine-3-carbonyl)-N-cyclohexyl-N-ethyl-benzamide] had an inhibition constant (Ki) at hA2A receptor of 108 ± 74 nM. Besides, the IC50 against human A2A receptor is 891 ± 571 nM.
The compound `CCN(C(=O)c1ccc(C(=O)c2cnc3ccccn23)nc1)C1CCCCC1` [Example 23, N-Cyclohexyl-N-ethyl-6-(imidazo[1,2-a]pyridine-3-carbonyl)-nicotinamide] gave a Ki on hA2A receptor of 264 ± 141 nM. The compound also showed an IC50 on human A2A receptor of 403 ± 163 nM.
In turn, `CCN(C(=O)c1ccc(C(=O)c2cnc3ccc(F)cn23)cc1Cl)C1CCCCC1` [Example 24, 2-Chloro-N-cyclohexyl-N-ethyl-4-(6-fluoro-imidazo[1,2-a]pyridine-3-carbonyl)-benzamide] had a Ki at hA2A receptor of 34 ± 9 nM.
At hA2A receptor, `O=C(c1ccc(C(=O)N(C2CCCCC2)C2CCCCC2)cc1)c1cnc2ccccn12` [Example 48, N,N-Dicyclohexyl-4-(imidazo[1,2-a]pyridine-3-carbonyl)-benzamide] showed a Ki of 138 ± 115 nM. For the same compound, the IC50 on human A2A receptor was found to be 945 ± 419 nM.
Consider `CN(C(=O)c1ccc(C(=O)c2cnc3ccc(F)cn23)cc1)c1ccccc1` [Example 50, 4-(6-Fluoro-imidazo[1,2-a]pyridine-3-carbonyl)-N-methyl-N-phenyl-benzamide], for which the melting point is 131 to 135 °C.
The compound `CCN(C(=O)c1ccc(C(=O)c2cnc3ccccn23)cc1)c1ccccc1` [Example 56, N-Ethyl-4-(imidazo[1,2-a]pyridine-3-carbonyl)-N-phenyl-benzamide] had a melting point of 141 to 145 °C. The compound also gave a Ki on hA2A receptor of 188 ± 63 nM.
As for `N#Cc1ccc2ncc(C(=O)c3ccc(C(=O)N4CCCCCC4)cc3F)n2c1` [Example 73, 3-[4-(Azepan-1-ylcarbonyl)-2-fluorobenzoyl]imidazo[1,2-a]pyridine-6-carbonitrile], the melting point lay within 128 to 130 °C.
With `Cn1nc(-c2cnc3ccc(F)cn23)c2ccc(C(=O)N3CCCCCC3)cc21` [Example 79, Azepan-1-yl-[3-(6-fluoro-imidazo[1,2-a]pyridin-3-yl)-1-methyl-1H-indazol-6-yl]-methanone], at hA2A receptor, the Ki amounted to 4 ± 1 nM. Also, at human A2A receptor, the IC50 was determined as 15 ± 4 nM.
`Cl.Cn1nc(-c2cnc3ccc(C(F)(F)F)cn23)c2ccc(C(=O)N3CCCCCC3)cc21` [Example 85, [6-(Azepan-1-ylcarbonyl)]-1-methyl-3[6-(trifluoromethyl)-imidazo[1,2-a]pyridin-3-yl]-1H-indazole, HCl salt] came in with a melting point of 202 to 204 °C. In addition, the inhibition constant (Ki) on hA2A receptor came to 177 ± 5 nM.
For `Cl.O=C(c1ccc2c(-c3cnc4ccc(F)cn34)nn(Cc3ccccc3)c2c1)N1CCCCCC1` [Example 107, Azepan-1-yl-[1-benzyl-3-(6-fluoro-imidazo[1,2-a]pyridin-3-yl)-1H-indazol-6-yl]-methanone, HCl salt], in that order: 134 to 135 °C and 34 ± 5 nM.
The corresponding values for `CN1CCN(C(=O)n2nc(-c3cnc4ccc(F)cn34)c3ccc(C(=O)N4CCCCCC4)cc32)CC1.Cl` [Example 111, Azepan-1-yl-[3-(6-fluoro-imidazo[1,2-a]pyridin-3-yl)-1-[(4-methylpiperazin-1-yl)carbonyl]-1H-indazol-6-yl]-methanone, HCl salt] are 193 to 199 °C and 291 ± 30 nM.
As to `N#Cc1ccc2ncc(-c3noc4cc(C(=O)N5CCOCC5)ccc34)n2c1` [Example 125, 3-[6-(Morpholin-4-ylcarbonyl)-1,2-benzisoxazol-3-yl]imidazo[1,2-a]pyridine-6-carbonitrile, HCl salt], on hA2A receptor, the Ki came to 147 ± 54 nM.
Same read-out and setting: the figure for `O=C(c1ccc2c(-c3cnc4ccc(F)cn34)c[nH]c2c1)N1CCCCCC1` [Example 134, 3-[6-(Azepan-1-ylcarbonyl)-1H-indol-3-yl]-6-fluoroimidazo[1,2-a]pyridine] is 348 ± 95 nM; for `Nc1nc(-c2cnc3ccc(F)cn23)c2ccc(C(=O)N3CCCCCC3)cc2n1` [Example 136, 2-Amino-7-(azepan-1-ylcarbonyl)-4-(6-fluoroimidazo[1,2-a]pyridin-3-yl)quinazoline, HCl salt] it is 84 ± 11 nM; for `CCN(C(=O)c1ccc(C(=O)c2cnc3ccc(Cl)nn23)cc1)C1CCCCC1` [Example 139, N-Cyclohexyl-N-ethyl-4-(6-chloroimidazo[1,2-b]pyridazin-3-ylcarbonyl)-benzamide] it is 459 ± 270 nM.
